Values after ≈ are worked out from the molar mass of the structure shown. Active and inactive are the calls of the source. The rule behind the calls is not given here.
What was measured:
Staphylococcus aureus [1] = assay: Antibacterial activity against vancomycin-intermediate resistant Staphylococcus aureus clinical isolate after 24 hrs by broth microdilution method; assay type: functional
Streptococcus pyogenes = assay: Antibacterial activity against Streptococcus pyogenes C203 after 24 hrs by broth microdilution method; assay type: functional; conditions: C203, 24 h, read-out: MIC
Staphylococcus aureus [2] = assay: Antibacterial activity against Staphylococcus aureus Smith in presence of 30% bovine serum after 24 hrs by broth microdilution method; assay type: functional
Enterococcus faecium [3] = assay: Antibacterial activity against Enterococcus faecium after 24 hrs by broth microdilution method; assay type: functional; conditions: for MIC: read-out: MIC
Staphylococcus aureus [4] = assay: Antibacterial activity against methicillin-resistant and vancomycin-intermediate resistant Staphylococcus aureus clinical isolate after 24 hrs by broth microdilution method; assay type: functional; conditions: read-out: MIC
Enterococcus faecium [5] = assay: Antibacterial activity against vancomycin A-resistant Enterococcus faecium clinical isolate after 24 hrs by broth microdilution method; assay type: functional; conditions: read-out: MIC
Staphylococcus aureus [6] = assay: Antibacterial activity against methicillin-resistant Staphylococcus aureus clinical isolate after 24 hrs by broth microdilution method; assay type: functional; conditions: read-out: MIC
Candida albicans = assay: Antifungal activity against Candida albicans SKF-2270 after 24 hrs by broth microdilution method; assay type: functional; conditions: read-out: MIC
[7] = Toxicity assessed as hemolysis in erythrocytes at 300 mg/L; assay type: cell-based, Erythrocyte; conditions: human, read-out: Activity
[8] = Toxicity assessed as hemolysis in erythrocytes at 90 mg/L; assay type: cell-based, Erythrocyte; conditions: human, erythrocytes; read-out: Activity
[9] = Toxicity assessed as hemolysis in erythrocytes at 180 mg/L; assay type: cell-based, Erythrocyte; conditions: human, erythrocytes; read-out: Activity
Staphylococcus aureus [10] = assay: Antibacterial activity against vancomycin-intermediate resistant Staphylococcus aureus clinical isolate in presence of 30% bovine serum after 24 hrs by broth microdilution method; assay type: functional
[11] = Toxicity assessed as hemolysis in erythrocytes at 600 mg/L; assay type: cell-based, Erythrocyte; conditions: human, read-out: Activity
Enterococcus faecalis [12] = assay: Antibacterial activity against vancomycin-resistant Enterococcus faecalis in presence of 30% bovine serum after 24 hrs by broth microdilution method; assay type: functional
Enterococcus faecalis [13] = assay: Antibacterial activity against vancomycin A-resistant Enterococcus faecalis after 24 hrs by broth microdilution method; assay type: functional; conditions: read-out: MIC
Enterococcus faecium [14] = assay: Antibacterial activity against vancomycin A-resistant Enterococcus faecium clinical isolate in presence of 30% bovine serum after 24 hrs by broth microdilution method; assay type: functional
Escherichia coli = assay: Antibacterial activity against Escherichia coli SKF-12140 after 24 hrs by broth microdilution method; assay type: functional; conditions: read-out: MIC
[15] = Toxicity assessed as hemolysis in erythrocytes at 1200 mg/L; assay type: cell-based, Erythrocyte; conditions: human, read-out: Activity
Staphylococcus aureus [16] = assay: Antibacterial activity against Staphylococcus aureus Smith after 24 hrs by broth microdilution method; assay type: functional; conditions: read-out: MIC
Enterococcus faecalis [17] = assay: Antibacterial activity against Enterococcus faecalis after 24 hrs by broth microdilution method; assay type: functional; conditions: read-out: MIC

Row | Compound | MIC (Staphylococcus aureus [1]) [µg/mL] | MIC (Streptococcus pyogenes) [µg/mL] | MIC (Staphylococcus aureus [2]) [µg/mL] | MIC (Enterococcus faecium [3]) [µg/mL] | MIC (Staphylococcus aureus [4]) [µg/mL] | MIC (Enterococcus faecium [5]) [µg/mL] | MIC (Staphylococcus aureus [6]) [µg/mL] | MIC (Candida albicans) [µg/mL] | hemolysis at 300 mg/L [7] [%] | MIC (Staphylococcus aureus [10]) [µg/mL] | hemolysis at 600 mg/L [11] [%] | MIC (Enterococcus faecalis [12]) [µg/mL] | MIC (Enterococcus faecalis [13]) [µg/mL] | MIC (Enterococcus faecium [14]) [µg/mL] | MIC (Escherichia coli) [µg/mL] | hemolysis at 1200 mg/L [15] [%] | MIC (Staphylococcus aureus [16]) [µg/mL] | MIC (Enterococcus faecalis [17]) [µg/mL] | further results
1 | Cc1ccc(CC(=O)N[C@@H](CC(N)=O)C(=O)NC[C@@H]2C(=O)N[C@H](c3ccc(O)cc3)C(=O)N[C@H](CCCN)C(=O)N[C@H](C(C)C)C(=O)N[C@@H](c3ccc(O)cc3)C(=O)N[C@H](c3ccc(O)cc3)C(=O)N[C@@H]([C@@H](C)O)C(=O)N[C@@H](Cc3ccccc3)C(=O)N[C@H](CCCN)C(=O)N[C@@H](c3ccc(O[C@H]4O[C@H](CO)[C@@H](O)[C@H](O)[C@@H]4O[C@H]4O[C@H](CO)[C@@H](O)[C@H](O)[C@@H]4O)cc3)C(=O)N[C@H]([C@@H](C)O)C(=O)N[C@@H](c3ccc(O)cc3)C(=O)NCC(=O)N[C@@H](CC(C)C)C(=O)N[C@H](C)C(=O)N[C@@H](c3ccc(O)c(Cl)c3)C(=O)O[C@@H]2C(N)=O)cc1.Cl | 2 | ≤ 0.125 | 0.5 | 0.5 | 4 | 0.5 | ≤ 0.125 | > 128 | 2 | 4 | 11 | 2 | ≤ 0.125 | 2 | > 128 | 9 | ≤ 0.125 | 0.25 | hemolysis at 90 mg/L [8]: 0%; hemolysis at 180 mg/L [9]: 0%
2 | Cc1cccc(C)c1CC(=O)N[C@@H](CC(N)=O)C(=O)NC[C@@H]1C(=O)N[C@H](c2ccc(O)cc2)C(=O)N[C@H](CCCN)C(=O)N[C@H](C(C)C)C(=O)N[C@@H](c2ccc(O)cc2)C(=O)N[C@H](c2ccc(O)cc2)C(=O)N[C@@H]([C@@H](C)O)C(=O)N[C@@H](Cc2ccccc2)C(=O)N[C@H](CCCN)C(=O)N[C@@H](c2ccc(O[C@H]3O[C@H](CO)[C@@H](O)[C@H](O)[C@@H]3O[C@H]3O[C@H](CO)[C@@H](O)[C@H](O)[C@@H]3O)cc2)C(=O)N[C@H]([C@@H](C)O)C(=O)N[C@@H](c2ccc(O)cc2)C(=O)NCC(=O)N[C@@H](CC(C)C)C(=O)N[C@H](C)C(=O)N[C@@H](c2ccc(O)c(Cl)c2)C(=O)O[C@@H]1C(N)=O | 0.25 (≈ 0.097 µM) | ≤ 0.125 | 0.5 | 0.5 (≈ 0.194 µM) | 1 (≈ 0.388 µM) | 0.25 (≈ 0.097 µM) | ≤ 0.125 | > 128 | 0 | 2 | 13 | 1 |  | 4 | > 128 | 43 | ≤ 0.125 | ≤ 0.125 | 
3 | Cc1cc(C)cc(CC(=O)N[C@@H](CC(N)=O)C(=O)NC[C@@H]2C(=O)N[C@H](c3ccc(O)cc3)C(=O)N[C@H](CCCN)C(=O)N[C@H](C(C)C)C(=O)N[C@@H](c3ccc(O)cc3)C(=O)N[C@H](c3ccc(O)cc3)C(=O)N[C@@H]([C@@H](C)O)C(=O)N[C@@H](Cc3ccccc3)C(=O)N[C@H](CCCN)C(=O)N[C@@H](c3ccc(O[C@H]4O[C@H](CO)[C@@H](O)[C@H](O)[C@@H]4O[C@H]4O[C@H](CO)[C@@H](O)[C@H](O)[C@@H]4O)cc3)C(=O)N[C@H]([C@@H](C)O)C(=O)N[C@@H](c3ccc(O)cc3)C(=O)NCC(=O)N[C@@H](CC(C)C)C(=O)N[C@H](C)C(=O)N[C@@H](c3ccc(O)c(Cl)c3)C(=O)O[C@@H]2C(N)=O)c1 | 0.5 (≈ 0.194 µM) | ≤ 0.125 | 1 | 0.25 (≈ 0.097 µM) | 1 (≈ 0.388 µM) | ≤ 0.125 | ≤ 0.125 | > 128 | 0 | 4 | 18 | 1 |  | 2 | > 128 | 87 | ≤ 0.125 | ≤ 0.125 | 
4 | Cc1cccc(CC(=O)N[C@@H](CC(N)=O)C(=O)NC[C@@H]2C(=O)N[C@H](c3ccc(O)cc3)C(=O)N[C@H](CCCN)C(=O)N[C@H](C(C)C)C(=O)N[C@@H](c3ccc(O)cc3)C(=O)N[C@H](c3ccc(O)cc3)C(=O)N[C@@H]([C@@H](C)O)C(=O)N[C@@H](Cc3ccccc3)C(=O)N[C@H](CCCN)C(=O)N[C@@H](c3ccc(O[C@H]4O[C@H](CO)[C@@H](O)[C@H](O)[C@@H]4O[C@H]4O[C@H](CO)[C@@H](O)[C@H](O)[C@@H]4O)cc3)C(=O)N[C@H]([C@@H](C)O)C(=O)N[C@@H](c3ccc(O)cc3)C(=O)NCC(=O)N[C@@H](CC(C)C)C(=O)N[C@H](C)C(=O)N[C@@H](c3ccc(O)c(Cl)c3)C(=O)O[C@@H]2C(N)=O)c1 | 1 (≈ 0.39 µM) | ≤ 0.125 | 1 | 0.5 (≈ 0.195 µM) | 2 (≈ 0.781 µM) | 0.5 (≈ 0.195 µM) | 0.25 (≈ 0.0976 µM) | > 128 | 0 | 4 | 0 | 1 | ≤ 0.125 | 4 | > 128 | 5 | ≤ 0.125 | 0.25 (≈ 0.0976 µM) | 
5 | CC(C)C[C@@H]1NC(=O)CNC(=O)[C@H](c2ccc(O)cc2)NC(=O)[C@@H]([C@@H](C)O)NC(=O)[C@H](c2ccc(O[C@H]3O[C@H](CO)[C@@H](O)[C@H](O)[C@@H]3O[C@H]3O[C@H](CO)[C@@H](O)[C@H](O)[C@@H]3O)cc2)NC(=O)[C@@H](CCCN)NC(=O)[C@H](Cc2ccccc2)NC(=O)[C@H]([C@@H](C)O)NC(=O)[C@@H](c2ccc(O)cc2)NC(=O)[C@H](c2ccc(O)cc2)NC(=O)[C@@H](C(C)C)NC(=O)[C@@H](CCCN)NC(=O)[C@@H](c2ccc(O)cc2)NC(=O)[C@@H](CNC(=O)[C@H](CC(N)=O)NC(=O)Cc2ccccc2[N+](=O)[O-])[C@@H](C(N)=O)OC(=O)[C@H](c2ccc(O)c(Cl)c2)NC(=O)[C@@H](C)NC1=O | 2 (≈ 0.771 µM) | ≤ 0.125 | 1 | 4 (≈ 1.54 µM) | 4 (≈ 1.54 µM) | 2 (≈ 0.771 µM) | 1 (≈ 0.386 µM) | > 128 | 1 | 4 | 0 | 2 | 1 (≈ 0.386 µM) | 8 | > 128 | 0 | 0.5 (≈ 0.193 µM) | 2 (≈ 0.771 µM) | 
6 | Cc1ccccc1C(C)C(=O)N[C@@H](CC(N)=O)C(=O)NC[C@@H]1C(=O)N[C@H](c2ccc(O)cc2)C(=O)N[C@H](CCCN)C(=O)N[C@H](C(C)C)C(=O)N[C@@H](c2ccc(O)cc2)C(=O)N[C@H](c2ccc(O)cc2)C(=O)N[C@@H]([C@@H](C)O)C(=O)N[C@@H](Cc2ccccc2)C(=O)N[C@H](CCCN)C(=O)N[C@@H](c2ccc(O[C@H]3O[C@H](CO)[C@@H](O)[C@H](O)[C@@H]3O[C@H]3O[C@H](CO)[C@@H](O)[C@H](O)[C@@H]3O)cc2)C(=O)N[C@H]([C@@H](C)O)C(=O)N[C@@H](c2ccc(O)cc2)C(=O)NCC(=O)N[C@@H](CC(C)C)C(=O)N[C@H](C)C(=O)N[C@@H](c2ccc(O)c(Cl)c2)C(=O)O[C@@H]1C(N)=O (stereo partly drawn) | 2 (≈ 0.776 µM) | ≤ 0.125 | 1 |  | 4 (≈ 1.55 µM) | 1 (≈ 0.388 µM) | 0.5 (≈ 0.194 µM) | > 128 | 2 | 4 | 4 | 2 | 1 (≈ 0.388 µM) | 8 | > 128 | 45 | 0.25 (≈ 0.097 µM) | 0.5 (≈ 0.194 µM) | Activity (Enterococcus faecium [3]): inactive

From ChEMBL document CHEMBL1145390, “Synthesis and preliminary biological characterization of new semisynthetic derivatives of ramoplanin” (J Med Chem, 2007)
